Experiments:
[1] = molecular target: Human Cbl-b (residues 40-426) (Homo sapiens (Human), UniProt Q13191); experiment: Cbl-b SPR assay; type: binding; details: for Fold of selectivity: C-cbl SPR Kd vs Cbl-b SPR Kd; for Kd: SPR, 20° C.
Outline: (§1)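 Binding is measured by surface plasmon resonance against both isoforms, with double referencing and 1:1 kinetic fitting. Dissociation time is tuned to 4-5 half-lives.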

Cbl-b = Cbl-b (Homo sapiens (Human), UniProt Q13191); experiment: Cbl-b LCK Ub TR-FRET assay (Cbl-b Lck HTRF); type: biochemical; details: for IC50: Cbl-b LCK Ub TR-FRET; for fold-selectivity (Cbl-b over C-cbl): ratio C-cbl Lck HTRF IC50 / Cbl-b Lck HTRF IC50
Sequence of Cbl-b (Q13191 40-426): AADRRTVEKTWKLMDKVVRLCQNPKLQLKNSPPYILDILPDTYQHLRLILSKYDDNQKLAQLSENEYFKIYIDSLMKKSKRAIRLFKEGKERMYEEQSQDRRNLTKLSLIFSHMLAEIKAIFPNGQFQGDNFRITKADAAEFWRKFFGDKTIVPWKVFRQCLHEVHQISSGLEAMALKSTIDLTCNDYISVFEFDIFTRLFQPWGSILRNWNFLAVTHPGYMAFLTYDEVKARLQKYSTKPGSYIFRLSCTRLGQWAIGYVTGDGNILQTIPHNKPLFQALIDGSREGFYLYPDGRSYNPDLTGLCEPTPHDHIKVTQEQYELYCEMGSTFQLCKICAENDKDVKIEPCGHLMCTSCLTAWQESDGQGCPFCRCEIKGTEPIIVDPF
Outline: (§2)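 After the ubiquitination reaction, detection mixture was added and plates incubated 20 min at room temperature before reading. IC50 values were calculated with wells lacking LCK as the low control and DMSO as the high control.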

c-Cbl (residues 47-435) = c-Cbl (residues 47-435) (Homo sapiens (Human), UniProt P22681); experiment: c-Cbl SPR assay; type: binding; details: 20° C.
Sequence of c-Cbl (residues 47-435) (P22681 47-435): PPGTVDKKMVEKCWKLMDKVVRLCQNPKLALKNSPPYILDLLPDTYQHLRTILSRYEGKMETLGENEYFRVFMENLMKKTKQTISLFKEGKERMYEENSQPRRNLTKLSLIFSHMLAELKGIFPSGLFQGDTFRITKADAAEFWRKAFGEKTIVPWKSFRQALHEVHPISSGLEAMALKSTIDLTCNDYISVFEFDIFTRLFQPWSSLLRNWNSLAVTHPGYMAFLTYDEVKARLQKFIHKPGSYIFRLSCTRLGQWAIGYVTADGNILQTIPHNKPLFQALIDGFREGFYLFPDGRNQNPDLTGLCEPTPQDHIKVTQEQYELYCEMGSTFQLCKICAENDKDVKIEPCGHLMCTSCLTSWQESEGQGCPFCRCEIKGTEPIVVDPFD
Outline: as §1

c-Cbl = c-Cbl (Homo sapiens (Human), UniProt P22681); experiment: C-Cbl LCK Ub TR-FRET assay (C-cbl Lck HTRF); type: biochemical
Sequence of c-Cbl (P22681 47-435): as above
Outline: as §2

Sequence of Human Cbl-b (residues 40-426) (Q13191 40-426): as the sequence (Q13191 40-426) above

Compound `Cn1cnnc1C1(c2cccc(N3Cc4c(cc(CNC5(C)CCC5)cc4C(F)(F)F)C3=O)c2)CC1` [Compound 283, 2-(3-(1-(4-methyl-4H-1,2,4-triazol-3-yl)cyclopropyl)phenyl)-6-(((1-methylcyclobutyl)amino)methyl)-4-(trifluoromethyl)isoindolin-1-one] has a Fold of selectivity [1] of 5.3×, a Kd [1] of 43 nM and an IC50 (Cbl-b) of 81 nM. The “fold-selectivity (Cbl-b over C-cbl)” value (Cbl-b) was 2.7x, the Kd (c-Cbl (residues 47-435)) was 220 nM and the IC50 (c-Cbl) was 220 nM.

Compound `C[C@H](NC1(C)CCC1)c1cc2c(c(C(F)(F)F)c1)CN(c1cccc(C(c3nncn3C)C3COC3)c1)C2=O` (stereo partly drawn) [Compound 285] has a Fold of selectivity [1] of 1.1×, a Kd [1] of 0.7 nM and an IC50 (Cbl-b) of 6 nM. For the same compound, the “fold-selectivity (Cbl-b over C-cbl)” value (Cbl-b) was 1.1x, the Kd (c-Cbl (residues 47-435)) was 0.8 nM and the IC50 (c-Cbl) was 6.5 nM.

`Cn1cnnc1C1(c2cccc(N3Cc4c(cc(CNC5(C)CCC5)cc4C(F)(F)F)C3=O)c2)CCCC1` [Compound 292, 2-(3-(1-(4-methyl-4H-1,2,4-triazol-3-yl)cyclopentyl)phenyl)-6-(((1-methylcyclobutyl)amino)methyl)-4-(trifluoromethyl)isoindolin-1-one] gave a Fold of selectivity [1] of 6.3×, a Kd [1] of 5 nM and an IC50 (Cbl-b) of 9.8 nM. The “fold-selectivity (Cbl-b over C-cbl)” value (Cbl-b) was 2.4x, the Kd (c-Cbl (residues 47-435)) was 31 nM and the IC50 (c-Cbl) was 23 nM.

For `Cn1cnnc1C1(c2cccc(N3Cc4c(cc(CNC5(C)CCC5)cc4C(F)(F)F)C3=O)c2)CC2(C1)OCCO2` [Compound 293, 2-(3-(2-(4-methyl-4H-1,2,4-triazol-3-yl)-5,8-dioxaspiro[3.4]octan-2-yl)phenyl)-6-(((1-methylcyclobutyl)amino)methyl)-4-(trifluoromethyl)isoindolin-1-one], the Fold of selectivity [1] was 4.0×, the Kd [1] was 53 nM and the IC50 (Cbl-b) was 64 nM. For the same compound, the “fold-selectivity (Cbl-b over C-cbl)” value (Cbl-b) was 3.0x, the Kd (c-Cbl (residues 47-435)) was 200 nM and the IC50 (c-Cbl) was 190 nM.

For `Cn1cnnc1[C@H](C[C@H]1COCCO1)c1cccc(N2Cc3c(cc(CNC4(C)CCC4)cc3C(F)(F)F)C2=O)c1` [Compound 294, 2-(3-((R)-2-((S)-1,4-dioxan-2-yl)-1-(4-methyl-4H-1,2,4-triazol-3-yl)ethyl)phenyl)-6-(((1-methylcyclobutyl)amino)methyl)-4-(trifluoromethyl)isoindolin-1-one], the Fold of selectivity [1] was 1.3×, the Kd [1] was 530 nM and the IC50 (Cbl-b) was 400 nM. The “fold-selectivity (Cbl-b over C-cbl)” value (Cbl-b) was 1.6x, the Kd (c-Cbl (residues 47-435)) was 720 nM and the IC50 (c-Cbl) was 660 nM.

`Cn1cnnc1[C@H](C[C@@H]1COCCO1)c1cccc(N2Cc3c(cc(CNC4(C)CCC4)cc3C(F)(F)F)C2=O)c1` [Compound 297, 2-(3-((R)-2-((R)-1,4-dioxan-2-yl)-1-(4-methyl-4H-1,2,4-triazol-3-yl)ethyl)phenyl)-6-(((1-methylcyclobutyl)amino)methyl)-4-(trifluoromethyl)isoindolin-1-one] was tested, and the Fold of selectivity [1] was 2.0×, the Kd [1] was 2800 nM and the IC50 (Cbl-b) was 1300 nM. The “fold-selectivity (Cbl-b over C-cbl)” value (Cbl-b) was 1.8x, the Kd (c-Cbl (residues 47-435)) was 5800 nM and the IC50 (c-Cbl) was 2300 nM.

`Cn1cnnc1C1(c2cccc(N3Cc4c(cc(CNC5(C)CCC5)cc4C(F)(F)F)C3=O)c2)CCCCC1` [Compound 298, 2-(3-(1-(4-methyl-4H-1,2,4-triazol-3-yl)cyclohexyl)phenyl)-6-(((1-methylcyclobutyl)amino)methyl)-4-(trifluoromethyl)isoindolin-1-one] gave a Fold of selectivity [1] of 5.9×, a Kd [1] of 480 nM and an IC50 (Cbl-b) of 660 nM. The “fold-selectivity (Cbl-b over C-cbl)” value (Cbl-b) was 2.3x, the Kd (c-Cbl (residues 47-435)) was 2600 nM and the IC50 (c-Cbl) was 1500 nM.

With `Cn1cnnc1[C@@](C)(O)c1cccc(N2Cc3c(cc(CNC4(C)CCC4)cc3C(F)(F)F)C2=O)c1` [Compound 306, (S)-2-(3-(1-hydroxy-1-(4-methyl-4H-1,2,4-triazol-3-yl)ethyl)phenyl)-6-(((1-methylcyclobutyl)amino)methyl)-4-(trifluoromethyl)isoindolin-1-one] the Fold of selectivity [1] was 2.0×, the Kd [1] was 140 nM and the IC50 (Cbl-b) was 140 nM. For the same compound, the “fold-selectivity (Cbl-b over C-cbl)” value (Cbl-b) was 1.6x, the Kd (c-Cbl (residues 47-435)) was 280 nM and the IC50 (c-Cbl) was 230 nM.

Compound `CC(C)[C@](O)(c1cccc(N2Cc3c(cc(CNC4(C)CCC4)cc3C(F)(F)F)C2=O)c1)c1nncn1C` [Compound 310, (S)-2-(3-(1-hydroxy-2-methyl-1-(4-methyl-4H-1,2,4-triazol-3-yl)propyl)phenyl)-6-(((1-methylcyclobutyl)amino)methyl)-4-(trifluoromethyl)isoindolin-1-one] has a Fold of selectivity [1] of 3.7×, a Kd [1] of 30 nM and an IC50 (Cbl-b) of 24 nM. The “fold-selectivity (Cbl-b over C-cbl)” value (Cbl-b) was 4.7x, the Kd (c-Cbl (residues 47-435)) was 110 nM and the IC50 (c-Cbl) was 110 nM.

— patent publication US12187709B2 (Genentech, Inc., priority 2021, dated 2025)
